From patent publication US20250091994A1, “RAS/RAF BINDING INHIBITOR COMPOUND” (NATIONAL UNIVERSITY CORPORATION KOBE UNIVERSITY, priority 2021, published 2025) come the findings set out here.

What is called inhibition is how much of the control response was suppressed.

SMILES strings stand for the structures.

What all share (type): cell-based
Test [1] relates to acute lymphoblastic leukemia cells CCRF-CEM (K-RasG12D). The test is described as follows: Cell growth inhibition, suspension cells CCRF-CEM. The note with it: Homo sapiens, 72 hours; for inhibition at 1 µM: read-out: CCRF-CEM (KRasG12D) % inhibition at 1 μM. An outline of the steps:
(§1)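 Suspension cells, 2 to 4×10^4 per well, cultured with compound in medium with 0.5% FBS (1% DMSO final) for 72 h at 37° C, 5% CO2. Viable cells counted with Cell Counting Reagent; inhibition calculated relative to controls.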

Test [2] relates to promyelocytic leukemia cells HL60 (N-RasQ61L). Put plainly: Cell growth inhibition, suspension cells HL60. The settings on record: Homo sapiens, HL-60, 72 hours; for inhibition at 10 µM: read-out: HL-60 (NRasQ61L) % inhibition at 10 μM (***). An outline of the steps: as §1
Test [3] deals with phosphorylated MEK (pMEK) in HL60 cells. The test is described as follows: Ras-Raf signaling inhibition at culture cell level, pMEK. The note with it: Homo sapiens, HL-60; HL60 (N-RasQ61L), 1 μM test compound, 3 hours. How it is done:
(§2) The Ras-Raf signaling inhibitory activity of the compound of the present invention at a culture cell level was evaluated by the following method.
(§3) The HL60 cells described in Test Example 2 suspended in a medium containing 0.5% (v/v) FBS with each compound solution (final DMSO concentration: 1%), were seeded on a 12-well plate (2 to 4×10^5 cells/well), and the resulting mixture was then cultured at 37° C. in the presence of 5% CO2 for 3 hours.
(§4) After completion of the cell culture, proteins were extracted from the cells, using RIPA Buffer (Nacalai Tesque) containing a mixture of protease inhibitors and phosphatase inhibitors. An equivalent amount of protein was separated by standard SDS-PAGE and was then transferred onto a PVDF membrane. In order to detect the activation (phosphorylation) of MEK and ERK, downstream molecules of the Ras-Raf signaling pathway, the membrane was probed with 1000-fold diluted primary antibodies {phosphorylated MEK (pMEK: #9121), phosphorylated ERK (pERK: #9101), total MEK (tMEK: #9122), and total ERK (tERK: 9102); all from Cell signaling}, and then with a 1000-fold diluted horseradish peroxidase-labeled secondary antibody against rabbit immunoglobulin G. The immunoreactive signals were colored with EzWestLumi One (ATTO), and were then detected by Fusion FX (Vilber). Signal intensity was quantified by pixel counting. Inhibition by the test compound was determined according to the following equation: […]

Test [4] concerns phosphorylated ERK (pERK) in HL60 cells. Put plainly: Ras-Raf signaling inhibition at culture cell level, pERK. The settings on record: Homo sapiens, HL-60; HL60 (N-RasQ61L), 1 μM test compound, 3 hours. How it is done:
as §2, §3, §4

For test [5], the system named is small cell lung cancer cells SHP77 (K-RasG12V). Put plainly: Cell growth inhibition, suspension cells SHP77. The settings on record: Homo sapiens, 72 hours. How it is done: (§5) The cell growth inhibitory activity of the compound of the present invention on human culture cells having active-type mutation in Ras was evaluated by the below-mentioned method using suspension cancer cells {acute lymphoblastic leukemia cells CCRF-CEM (K-RasG12D), promyelocytic leukemia cells HL60 (N-RasQ61L), acute lymphoblastic leukemia cells MOLT4 (N-RasG12C), and small cell lung cancer cells SHP77 (K-RasG12V)} and adherent cancer cells {large bowel cancer cells SW480 (K-RasG12V) and large bowel cancer cell SW620 (K-RasG12V)}.
(§6) (Case of suspension cells) The cells suspended in a medium containing 0.5% (v/v) fetal bovine serum (FBS) and each compound solution (final DMSO concentration: 1%) were seeded on a 96-well plate (2 to 4×10^4 cells/well), and the resulting mixture was then cultured at 37° C. in the presence of 5% CO2 for 72 hours.
(§7) Thereafter, the number of viable cells was measured using Cell Counting Reagent (Nacalai Tesque) in accordance with the manufacturer's instructions. Inhibition by the test compound was determined according to the following equation: […]

In test [6] the test system is large bowel cancer cells SW480 (K-RasG12V). Put plainly: Cell growth inhibition, adherent cells SW480. The note with it: Homo sapiens, 72 hours, read-out: SW480 (KRasG12V) % inhibition at 10 μM. On the procedure:
as §5
(Case of adherent cells) The cells suspended in a medium containing 10% FBS (1 to 2×10^4 cells/well) were seeded on a 96-well plate, and were then cultured at 37° C. in the presence of […]. Thereafter, the medium was exchanged with a medium containing […], to which each compound solution (final DMSO concentration: […]) had been added, and the cells were then cultured at 37° C. in the presence of […] for 72 hours.
as §7

Test [7] relates to acute lymphoblastic leukemia cells MOLT4 (N-RasG12C). Put plainly: Cell growth inhibition, suspension cells MOLT4. The note with it: Homo sapiens, MOLT-4; 3.3 μM (*), 72 hours; read-out: MOLT-4 (NRasG12C) % inhibition at 3.3 μM (*). On the procedure: as §5, §6, §7
Test [8] has as its system large bowel cancer cell SW620 (K-RasG12V). Put plainly: Cell growth inhibition, adherent cells SW620. The note with it: Homo sapiens, SW-620; 1 μM, 72 hours; read-out: SW620 (KRasG12V) % inhibition at 1 μM. An outline of the steps:
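Adherent cells, 1 to 2×10^4 per well, grown overnight in 10% FBS, then exposed to compound in low-serum medium […] for 72 h at 37° C. Viable cells counted with Cell Counting Reagent; inhibition calculated relative to controls.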

The test system of test [9] is Vemurafenib-resistant malignant melanoma cells A375R (BRafV600E). Put plainly: Cell growth inhibition, drug-resistant malignant melanoma A375R. The settings on record: Homo sapiens, in the presence of 1 μM PLX (Vemurafenib), 72 hours. How it is done: (§8) The human malignant melanoma cell lines A375 and HT 144, each having BRafV600E mutation, were cultured in a medium containing 10% FBS at 37° C. in the presence of 5% CO2. At the time point in which the cells became confluent, 1 μM Vemurafenib, a BRaf inhibitor, was added to the medium, and the cells were then cultured in the presence of Vemurafenib for 1 month or more (during which the medium was exchanged every 1 week), so as to acquire Vemurafenib-resistant malignant melanoma cells A375R and HT 144R. The resulting resistant cells were suspended in a medium containing 10% FBS, and then seeded on a 96-well plate to an amount of 1 to 2×10^4 cells/well. The cells were cultured at 37° C. in the presence of 5% CO2 overnight. Thereafter, the medium was exchanged with a medium containing 0.5% FBS, to which each compound solution (final DMSO concentration: 1%) and 1 μM Vemurafenib had been added, and the cells were then cultured at 37° C. in the presence of 5% CO2 for 72 hours.
as §7
(§9) Hereafter, Inhibition (%) by 3.3 μM compound is shown.

In test [10] the test system is Vemurafenib-resistant malignant melanoma cells HT 144R (BRafV600E). Put plainly: Cell growth inhibition, drug-resistant malignant melanoma HT144R. The note with it: Homo sapiens, in the presence of 1 μM PLX (Vemurafenib), 72 hours. How it is done: as §8, §7, §9

Regarding `CC(=O)N1/C(=C/c2nc3ccc(C(=O)N4CCOCC4)cc3s2)C(=O)c2ccccc21` [Example 58, (E)-1-acetyl-2-((6-(morpholine-4-carbonyl)benzo [d]thiazol-2-yl)-methylene)indolin-3-one], the results for the inhibition at 1 µM in [1], in test [3] and in [4] were 45%, 72% and 100%, respectively. In addition, in test [2], the inhibition at 10 µM worked out at 99%.
In the same order, the values of `CC(=O)N1/C(=C/c2nc3cc(C(=O)N4CCOCC4)ccc3s2)C(=O)c2ccccc21` [Example 48, (E)-1-acetyl-2-((5-(morpholine-4-carbonyl)benzo [d]thiazol-2-yl)-methylene)indolin-3-one] are 69%, 81%, 96% and 100%.
On to `CC(=O)N1/C(=C/c2ncc(C(=O)N3CCOCC3)s2)C(=O)c2ccccc21` [Example 68, (E)-1-acetyl-2-((5-(morpholine-4-carbonyl)thiazol-2-yl)methylene)-indolin-3-one], for which the inhibition at 3.3 µM in test [1] (3.3 μM (*), read-out: CCRF-CEM (KRasG12D) % inhibition at 3.3 μM(*)) turned out to be 80%; in [5] (3.3 μM (*), read-out: SHP77 (KRasG12V) % inhibition at 3.3 μM (*)), 67%. The inhibition at 1 µM in test [2] (1 μM, read-out: HL-60 (NRasQ61L) % inhibition at 1 μM) is 37%; in [3], 68%; in test [4], 93%. The inhibition at 10 µM in [6] amounted to 52%.
With `COc1cc(/C=C2/C(=O)c3ccccc3N2C(C)=O)ccc1OCC(N)=O` [Example 1, (Z)-2-(4-((1-acetyl-3-oxoindolin-2-ylidene)methyl)-2-methoxyphenoxy)-acetamide], the inhibition at 1 µM in test [1] is 51%; in [5] (1 μM, read-out: SHP77 (KRasG12V) % inhibition at 1 μM) it was 73%; in test [8], 53%; in test [3] it was 30%; in test [4], 61%. The inhibition at 10 µM was found to be 95% in [2] and 50% in [6]. Also, the inhibition at 3.3 µM in test [7] turned out to be 88%; in test [9] it was 28%; in test [10], 66%.
